Experimental findings from PubChem BioAssay (NCI) are described below.

What all share (experiment): NCI anticancer screen, dose series, 48 h
Assay [1] concerns OVCAR-8 ovarian.
Assay [2] deals with HOP-62 NSCLC.
Assay [3] relates to TK-10 renal.
Assay [4] deals with NCI-H23 lung.
For assay [5], the system named is M14 melanoma.
Assay [6] deals with LOX IMVI melanoma.
The test system of assay [7] is OVCAR-4 ovarian.
For assay [8], the system named is MDA-MB-231 breast.
For assay [9], the system named is EKVX NSCLC.
Assay [10] concerns HCC-2998 colon.

Each structure is given as a SMILES string. Values joined by “and” are separate entries in the source; they are usually repeats but may differ in a detail not shown here. Identical values can stand only once.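 Tested at 5 concentrations; 48 h exposure; 96-well plates; endpoints linearly interpolated, else capped at highest concentration. Here, GI50 denotes the concentration required for 50% inhibition of growth. TGI is the concentration that stops growth completely.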 Some results are limits rather than exact numbers.

For `O=C(NC(=O)c1c(F)cccc1F)Nc1cccc(Oc2ncc(Cl)cn2)c1`, the TGI in [1] is over 100 µM; in assay [2], 73.6 µM; in [3] it was over 100 µM; in assay [4], over 100 µM; in [5], over 100 µM; in assay [6], over 100 µM. Also, the TGI in assay [7] is over 100 µM; in assay [8], over 100 µM; in [9], over 100 µM; in assay [10] it was over 27.3 µM.
`CNC(=O)OCc1nc(SSC(C)(C)C)n(C)c1COC(=O)NC`: the TGI worked out at 5.35 µM in assay [1]; 31.1 µM in assay [2]; 13 µM in assay [3]; 8.11 µM in assay [4]; 4.13 µM in assay [5]; 8.61 µM in assay [6]. For the same compound, the TGI amounted to 4.3 µM in [7], 6.95 µM in [8], 20.7 µM in assay [9] and 22.4 µM in assay [10].
Regarding `CCN(CC)CCCC(CCl)Nc1ccnc2cc(Cl)ccc12` (centres undefined), the GI50 in assay [1] is 20.2 µM and 19.4 µM; in assay [2] it was 25.7 µM and 28.7 µM; in assay [3] it was 10.1 µM and 14.1 µM; in [4], 17.9 µM and 22.1 µM; in [5] it was 2.13 µM and 2.39 µM; in assay [6] it was 8.43 µM and 8.53 µM. Besides, the GI50 in assay [7] is 35.8 µM and 30.9 µM; in [8], 16.3 µM and 5.11 µM; in [9], 30.4 µM and 29.1 µM; in assay [10], 11.9 µM. In addition, the TGI is 54.8 µM and 71.3 µM in assay [1]; 71.8 µM and > 100 µM in assay [2]; 22.2 µM and 29.4 µM in assay [3]; 38.3 µM and > 60.2 µM in assay [4]; 4.38 µM and 4.92 µM in assay [5]; 42.3 µM and 31.4 µM in [6]. Also, the TGI is over 100 µM in assay [7]; 79.5 µM and > 43.1 µM in assay [8]; 87.2 µM and > 100 µM in assay [9]; 27.8 µM in [10].
As for `Oc1ccc2ccccc2c1N=Nc1cccc2ccccc12`, the TGI in [1], in assay [2], in [3], in [4], in assay [5] and in [6] was over 100 µM each time. In addition, the TGI in assay [7], in [8], in assay [9] and in assay [10] was over 100 µM throughout.
Take `CC(=O)OC1OC([C@H]2c3cccc(O)c3C(=O)c3c(O)cc(C)cc32)C(O)C(O)C1O` (some centres undefined): the GI50 in [1] was 0.0294 µM; in assay [2], 0.065 µM; in assay [3] it was 0.254 µM; in assay [4], under 0.0161 µM; in [5], under 0.0214 µM; in [6] it was under 0.0146 µM. The GI50 in [7] was under 0.0402 µM; in assay [8], 0.0188 µM; in assay [9], 0.198 µM; in [10], under 0.01 µM. The TGI in assay [1] is 0.0873 µM; in assay [2], 1.93 µM; in [3] it was 1.75 µM; in assay [5] it was 3.85 µM; in assay [6], under 0.0251 µM; in [7], over 89.2 µM. In addition, the TGI in [8] was 0.0671 µM; in [9], 3.04 µM.
In the case of `CSC(SC)(C(=O)O)c1cc(-c2c(Cl)cccc2Cl)no1`, the TGI is over 100 µM in assay [1]; over 100 µM in assay [2]; over 100 µM in assay [3]; 79 µM in [4]; over 100 µM in [5]; over 100 µM in [6]. Moreover, the TGI in [7], in assay [8] and in assay [9] was over 100 µM throughout.
On to `CN(C)Cc1cc(C(F)(F)F)ccc1C(O)(c1ccccc1)c1ccccc1`, for which the TGI in assay [1] stood at 35.8 µM; in [2] it was 33.7 µM; in [3], 31 µM; in [4] it was 79.3 µM; in assay [5], 25.3 µM; in assay [6] it was 31.8 µM. For the same compound, the TGI in [7] came to 37.5 µM; in assay [8], 24.8 µM; in [9] it was 29.6 µM.
Consider `Cn1c(Cl)c(/C=C2/C(=O)Nc3ccccc32)c2ccccc21`, for which the GI50 is 1.7 µM in assay [1]; 0.293 µM in assay [2]; 1.5 µM in assay [3]; 1.02 µM in assay [4]; 0.248 µM in assay [5]; 1.16 µM in [6]. Also, the values for the GI50 in [7] and in [8] were 2.62 µM and 0.588 µM, respectively. Also, the TGI is over 37.1 µM in assay [1]; 6.68 µM in assay [2]; 20.4 µM in assay [3]; 8.89 µM in assay [4]; 5.46 µM in assay [5]; 18.9 µM in assay [6]. Moreover, the figures for the TGI in [7], in assay [8] and in [9] were over 46.7 µM, 12.7 µM and 7.52 µM, respectively.
In the case of `CC(C)C(O)(C(C)C)C(C)C`, the TGI in [1], in assay [2], in assay [3], in assay [4], in [5] and in [6] was over 100 µM in each case. Also, the TGI in assay [7], in [8] and in assay [9] was over 100 µM in each case.
With `NC(CSC(c1ccccc1)(c1ccccc1)c1ccccc1)C(=O)NCC(=O)O` (centres undefined), the GI50 is 5.35 µM in assay [1]; 8.16 µM in assay [2]; 3.73 µM in [5]; 7.66 µM in [6]; 17.4 µM in [7]; 2.65 µM in [8]. Moreover, the GI50 in assay [10] was 2.57 µM. Moreover, the TGI in assay [1] was over 100 µM; in [2] it was over 100 µM; in assay [5], 23.2 µM; in [6], over 100 µM; in assay [7], 95.6 µM; in [8], 9.42 µM. The same compound yielded a TGI in [10] of 22.2 µM.
As for `C=C1c2c(C)nn(-c3ccc(C#CCOC4OC(CO)C(O)C(O)C4O)cc3)c2N(C)C23C[C@H]1C1(C)c4c(C)nn(-c5ccc(C#CCOC6OC(CO)C(O)C(O)C6O)cc5)c4N(C)C(C)(C[C@H]12)C3` (some centres undefined), the GI50 was 1 µM in [1]; 1.49 µM in [2]; 2.01 µM in assay [3]; 2.33 µM in assay [4]; 1.67 µM in [5]; 1.37 µM in assay [6]. For the same compound, the GI50 in assay [7] was 1.68 µM; in assay [8] it was 1.5 µM; in [10], 1.57 µM. Also, the TGI in assay [1] was 3.84 µM; in [2], 2.88 µM; in [3], 4.04 µM; in [4] it was 6.59 µM; in assay [5], 3.44 µM; in [6], 2.79 µM. Further, the TGI came out at 9.94 µM in assay [7], 3.06 µM in [8] and 3.15 µM in [10].
